Experimental data reported in patent publication US4273866A, “Ligand analog-irreversible enzyme inhibitor conjugates and methods for use” (priority 1979, dated 1981).

Molecular target: acetylcholinesterase (T.californica) (Tetronarce californica, UniProt P04058)
Assay: Antibody modulation of inhibition by Compound II and reversal by cholylglycine
Type: biochemical
Experimental: Antibody against cholylglycine-bovine serum albumin (BSA) conjugates were raised in rabbits, and the rabbit serum obtained by conventional techniques. The anti-cholylglycine IgG fraction was obtained by ammonium sulfate fractionation and ion exchange chromatography. The concentration of antibody was not determined but was adjusted from a pooled fraction from the ion exchange column to give best modulation of inhibition by Compound II. […] The experiment is carried out on an ABA-100® model bichromatic analyzer (Abbott Laboratories, North Chicago, Illinois) and the following settings were used:
The substrate solution and buffer are placed in the primary syringe of the dilution plate. The buffer is pH 7.0, 0.1 M potassium phosphate, 0.1% gelatin. The substrate is acetylthiocholine at 5.0×10^-4 M with DTNB at 1.6×10^-4 M as indicator. […] In all cases, the acetylcholinesterase (T.californica) concentration is approximately 2×10^-10 M and Compound II, the inhibitor, concentration is 10×10^-7 M. Where cholylglycine is added, the concentration in the sample cup is 10^-3 M. The sample cup contains pH 7.0, 0.1 M potassium phosphate buffer containing 0.1% gelatin plus the indicated components in the table: […]

[1] = enzyme + the substance only, T = 0 (E alone .246)
[2] = enzyme + the substance only, T = 13 min (E alone .237)
[3] = enzyme + the substance only, T = 25 min (E alone .234)
[4] = enzyme + the substance only, T = 36 min (E alone .230)

acetylcholinesterase (T.californica), sequence (P04058 22-564): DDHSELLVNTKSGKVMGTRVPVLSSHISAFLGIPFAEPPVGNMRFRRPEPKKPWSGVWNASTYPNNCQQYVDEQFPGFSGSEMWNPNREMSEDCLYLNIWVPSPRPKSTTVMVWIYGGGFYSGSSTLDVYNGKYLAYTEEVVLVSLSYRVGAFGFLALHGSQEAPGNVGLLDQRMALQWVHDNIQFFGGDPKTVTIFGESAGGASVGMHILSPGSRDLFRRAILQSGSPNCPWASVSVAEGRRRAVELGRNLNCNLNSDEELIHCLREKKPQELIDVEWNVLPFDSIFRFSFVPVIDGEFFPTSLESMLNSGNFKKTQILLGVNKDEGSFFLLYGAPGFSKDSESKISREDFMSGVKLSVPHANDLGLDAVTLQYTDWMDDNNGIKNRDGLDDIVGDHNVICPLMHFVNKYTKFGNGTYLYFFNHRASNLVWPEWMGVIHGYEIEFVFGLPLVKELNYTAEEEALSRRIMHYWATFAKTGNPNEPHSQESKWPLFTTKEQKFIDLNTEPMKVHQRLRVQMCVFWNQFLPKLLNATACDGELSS

SMILES	Change in Ad in 5 Minutes (E + Ab + CG (10^-3 M), no inhibitor, T = 0)	Change in Ad in 5 Minutes (E + Ab + CG (10^-3 M), no inhibitor, T = 13 min)	Change in Ad in 5 Minutes (E + Ab + CG (10^-3 M), no inhibitor, T = 25 min)	Change in Ad in 5 Minutes (E + Ab + CG (10^-3 M), no inhibitor, T = 36 min)	Change in Ad in 5 Minutes [1]	Change in Ad in 5 Minutes [2]	Change in Ad in 5 Minutes [3]	Change in Ad in 5 Minutes [4]	Change in Ad in 5 Minutes (E + I + Ab + CG (10^-3 M), T = 0)	Change in Ad in 5 Minutes (E + I + Ab + CG (10^-3 M), T = 13 min)	Change in Ad in 5 Minutes (E + I + Ab + CG (10^-3 M), T = 25 min)	Change in Ad in 5 Minutes (E + I + Ab + CG (10^-3 M), T = 36 min)	Change in Ad in 5 Minutes (E + I + Ab, T = 0)	Change in Ad in 5 Minutes (E + I + Ab, T = 13 min)	Change in Ad in 5 Minutes (E + I + Ab, T = 25 min)	Change in Ad in 5 Minutes (E + I + Ab, T = 36 min)	Change in Ad in 5 Minutes (E + I + CG (10^-3 M), T = 0)	Change in Ad in 5 Minutes (E + I + CG (10^-3 M), T = 13 min)	Change in Ad in 5 Minutes (E + I + CG (10^-3 M), T = 25 min)	Change in Ad in 5 Minutes (E + I + CG (10^-3 M), T = 36 min)
C[C@H](CCC(=O)NCC(=O)O)[C@H]1CC[C@H]2[C@@H]3[C@H](O)C[C@@H]4C[C@H](O)CC[C@]4(C)[C@H]3C[C@H](O)[C@]12C [CG, cholylglycine, reference compound]	.225 Ad/5 Min.	.223 Ad/5 Min.	.216 Ad/5 Min.	.207 Ad/5 Min.	.236 Ad/5 Min.	.228 Ad/5 Min.	.220 Ad/5 Min.	.211 Ad/5 Min.	–	–	–	–	–	–	–	–	–	–	–	–
CCOP(=O)(OCCCCCNC(=O)CCCCCNC(=O)CC[C@@H](C)[C@H]1CC[C@H]2[C@@H]3[C@H](O)C[C@@H]4C[C@H](O[Si](C)(C)C(C)(C)C)CC[C@]4(C)[C@H]3C[C@H](O)[C@]12C)Oc1ccc2ccc[n+](C)c2c1 (stereo partly drawn) [Compound II]	–	–	–	–	.226 Ad/5 Min.	.072 Ad/5 Min.	.025 Ad/5 Min.	.013 Ad/5 Min.	.224 Ad/5 Min.	.078 Ad/5 Min.	.032 Ad/5 Min.	.017 Ad/5 Min.	.235 Ad/5 Min.	.192 Ad/5 Min.	.164 Ad/5 Min.	.147 Ad/5 Min.	.224 Ad/5 Min.	.062 Ad/5 Min.	.022 Ad/5 Min.	.013 Ad/5 Min.
